Patent publication US20100190794A1, “Herbicidally Active Composition” (BASF SE, priority 2007, published 2010)

Legend:
BRAPL = assay: greenhouse test, pre-emergence treatment; format: in vivo, Brachiaria plantaginea
Excerpt: (§1) The culture containers used were plastic pots containing loamy sand with approximately 3.0% of humus as substrate. The seeds of the test plants were sown separately for each species.
(§2) For the pre-emergence treatment, the active compounds, suspended or emulsified in water, were applied directly after sowing by means of finely distributing nozzles. The containers were irrigated gently to promote germination and growth and subsequently covered with transparent plastic hoods until the plants had rooted. This cover caused uniform germination of the test plants unless this was adversely affected by the active compounds.
(§3) Depending on the species, the plants were kept at 10-25° C. and 20-35° C., respectively. The test period extended over 2 to 4 weeks. During this time, the plants were tended and their response to the individual treatments was evaluated.
(§4) Evaluation was carried out using a scale from 0 to 100. 100 means no emergence of the plants, or complete destruction of at least the above-ground parts, and 0 means no damage or normal course of growth. Good herbicidal activity is given at values of at least 70, and very good herbicidal activity is given at values of at least 85.
(§5) The respective stated components A and B, and if appropriate, C were formulated as a 5% by weight or 10% by weight strength emulsion concentrate or a commercially available formulation of component B was used and, with addition of the amount of solvent system, introduced into the spray liquor used for applying the active compound. In the examples, the solvent used was water.
(§6) The test period extended over 20 or 21 days. During this time, the plants were tended, and their reactions to the treatment with active compound was monitored.
(§7) What was evaluated was the damage by the chemical compositions using a scale of from 0 to 100%, in comparison to the untreated control plants. 0 means no damage, and 100 means complete destruction of the plants.
(§8) In the examples below, using the method of S. R. Colby (1967) “Calculating synergistic and antagonistic responses of herbicide combinations”, Weeds 15, p. 22 ff., the value E, which is expected if the activity of the individual active compounds is only additive, was calculated.
(§9) where X=percent activity using active compound A at an application rate a; Y=percent activity using active compound B at an application rate b; E=expected activity (in %) by A+B at application rates a+b.
(§10) If the value found in experiments is higher than the value E calculated according to Colby, a synergistic effect is present.

DIGSA = assay: greenhouse test, pre-emergence treatment; format: in vivo, Digitaria sanguinalis
Excerpt: as §1, §2, §3, §4, §5, §6, §7, §8, §9, §10

SETLU = assay: greenhouse test, pre-emergence treatment; format: in vivo, Setaria glauca; conditions: for Herbicidal action in % after 20 days against SETLU: Use Example 16
Excerpt: as §1, §2, §3, §4, §5, §6, §7, §8, §9, §10

SETFA = assay: greenhouse test, pre-emergence treatment; format: in vivo, Setaria faberi; conditions: Use Example 19
Excerpt: as §1, §2, §3, §4, §5, §6, §7, §8, §9, §10

SOLNI = assay: greenhouse test, pre-emergence treatment; format: in vivo, Solanum nigrum L.; conditions: Use Example 19
Excerpt: as §1, §2, §3, §4, §5, §6, §7, §8, §9, §10

LOLMU [1] = assay: greenhouse test, pre-emergence treatment; format: in vivo, Lolium multiflorum
Excerpt: as §1, §2, §3, §4, §5, §6, §7, §8, §9, §10

ALOMY [2] = assay: greenhouse test, pre-emergence treatment; format: in vivo, Alopecurus myosuroides
Excerpt: as §1, §2, §3, §4, §5, §6, §7, §8, §9, §10

ALOMY [3] = assay: greenhouse test, post-emergence treatment; format: in vivo, Alopecurus myosuroides; conditions: Use Example 17
Procedure: as §1
(§11) For the post-emergence treatment, the test plants were grown to a plant height of from 3 to 15 cm, depending on the plant habit, and only then treated with the active compounds which had been suspended or emulsified in water. To this end, the test plants were either sown directly and grown in the same containers, or they were first grown separately as seedlings and transplanted into the test containers a few days prior to treatment.
as §3, §4, §5, §6, §7, §8, §9, §10

LOLMU [4] = assay: greenhouse test, post-emergence treatment; format: in vivo, Lolium multiflorum; conditions: Use Example 17
Procedure: as §1, §11, §3, §4, §5, §6, §7, §8, §9, §10

SETVI = assay: greenhouse test, post-emergence treatment; format: in vivo, Setaria viridis; conditions: Use Example 17
Procedure: as §1, §11, §3, §4, §5, §6, §7, §8, §9, §10

PHACA = assay: greenhouse test, pre-emergence treatment; format: in vivo, Phalaris canariensis
Excerpt: as §1, §2, §3, §4, §5, §6, §7, §8, §9, §10

POAAN = assay: greenhouse test, pre-emergence treatment; format: in vivo, Poa annua; conditions: 25 g/ha a.s., Use Example 7
Excerpt: as §1, §2, §3, §4, §5, §6, §7, §8, §9, §10

LAMPU = assay: greenhouse test, pre-emergence treatment; format: in vivo, Lamium purpureum; conditions: 25 g/ha a.s., Use Example 20
Excerpt: as §1, §2, §3, §4, §5, §6, §7, §8, §9, §10

APESV = assay: greenhouse test, pre-emergence treatment; format: in vivo, Apera spica-venti; conditions: 25 g/ha a.s., Use Example 20
Excerpt: as §1, §2, §3, §4, §5, §6, §7, §8, §9, §10

ECHCG = assay: greenhouse test, pre-emergence treatment; format: in vivo, Echinochloa crus-galli; conditions: 1000 g/ha a.s., Use Example 2
Excerpt: as §1, §2, §3, §4, §5, §6, §7, §8, §9, §10

MATIN = assay: greenhouse test, pre-emergence treatment; format: in vivo, Matricaria inodora; conditions: 1000 g/ha a.s., Use Example 2
Excerpt: as §1, §2, §3, §4, §5, §6, §7, §8, §9, §10

STEME = assay: greenhouse test, pre-emergence treatment; format: in vivo, Stellaria media; conditions: 1000 g/ha a.s., Use Example 2
Excerpt: as §1, §2, §3, §4, §5, §6, §7, §8, §9, §10

CCHEC = assay: greenhouse test, pre-emergence treatment; format: in vivo, Cenchrus echinatus; conditions: Use Example 16
Excerpt: as §1, §2, §3, §4, §5, §6, §7, §8, §9, §10

In the case of `CS(=O)(=O)c1cc(C(F)(F)F)ccc1C(=O)c1cnoc1C1CC1` [Isoxaflutol, Isoxaflutole], the “Herbicidal action in % after 20 days against BRAPL” value (BRAPL; 13 g/ha a.s., Use Example 19) is reported as 75%, the “Herbicidal action in % after 21 days against BRAPL” value (BRAPL; 25 g/ha a.s., Use Example 9) is reported as 90% and the “Herbicidal action in % after 20 days against BRAPL” value (BRAPL; 25 g/ha a.s., Use Example 19) is reported as 80%. For the same compound, the “Herbicidal action in % after 20 days against DIGSA” value (DIGSA; 13 g/ha a.s., Use Example 19) was 75%, the “Herbicidal action in % after 21 days against DIGSA” value (DIGSA; 25 g/ha a.s., Use Example 9) was 98% and the “Herbicidal action in % after 20 days against DIGSA” value (DIGSA; 25 g/ha a.s., Use Example 19) was 95%. For the same compound, the “Herbicidal action in % after 21 days against SETLU” value (SETLU; 25 g/ha a.s., Use Example 9) was 75%, the “Herbicidal action in % after 20 days against SETFA” value (SETFA; 13 g/ha a.s.) was 40% and the “Herbicidal action in % after 20 days against SETFA” value (SETFA; 25 g/ha a.s.) was 55%. The “Herbicidal action in % after 20 days against SOLNI” value (SOLNI; 13 g/ha a.s.) was 85% and the “Herbicidal action in % after 20 days against SOLNI” value (SOLNI; 25 g/ha a.s.) was 98%.
In the case of `CCC(CC)Nc1c([N+](=O)[O-])cc(C)c(C)c1[N+](=O)[O-]` [Pendimethalin, reference compound], the “Herbicidal action in % after 20 days against LOLMU” value (LOLMU [1]; 250 g/ha a.s., Use Example 10) is reported as 0%, the “Herbicidal action in % after 20 days against ALOMY” value (ALOMY [2]; 250 g/ha a.s., Use Example 10) is reported as 30% and the “Herbicidal action in % after 20 days against ALOMY” value (ALOMY [3]; 500 g/ha a.s.) is reported as 65%. The “Herbicidal action in % after 20 days against ALOMY” value (ALOMY [3]; 1000 g/ha a.s.) was 75%, the “Herbicidal action in % after 20 days against LOLMU” value (LOLMU [4]; 500 g/ha a.s.) was 70% and the “Herbicidal action in % after 20 days against LOLMU” value (LOLMU [4]; 1000 g/ha a.s.) was 75%. For the same compound, the “Herbicidal action in % after 20 days against SETVI” value (SETVI; 500 g/ha a.s.) was 90% and the “Herbicidal action in % after 20 days against SETVI” value (SETVI; 1000 g/ha a.s.) was 95%.
With `O=C(Nc1ccc(F)cc1)c1cccc(Oc2cccc(C(F)(F)F)c2)n1` [Picolinafen, reference compound] the “Herbicidal action in % after 20 days against PHACA” value (PHACA; 25 g/ha a.s., Use Example 20) was 0%, the “Herbicidal action in % after 20 days against ALOMY” value (ALOMY [2]; 25 g/ha a.s., Use Example 7) was 0% and the “Herbicidal action in % after 20 days against POAAN” value (POAAN) was 0%. The “Herbicidal action in % after 20 days against LAMPU” value (LAMPU) was 0% and the “Herbicidal action in % after 20 days against APESV” value (APESV) was 60%.
With `CCCN(CCC)C(=O)SCc1ccccc1` [Prosulfocarb, reference compound] the “Herbicidal action in % after 20 days against ECHCG” value (ECHCG) was 40%, the “Herbicidal action in % after 20 days against MATIN” value (MATIN) was 30% and the “Herbicidal action in % after 20 days against STEME” value (STEME) was 80%. The “Herbicidal action in % after 20 days against ALOMY” value (ALOMY [2]; 1000 g/ha a.s., Use Example 2) was 70%.
With `O=C(O)c1c(Cl)ccc2cc(Cl)cnc12` [Quinclorac] the “Herbicidal action in % after 20 days against CCHEC” value (CCHEC; 62.5 g/ha a.s.) was 0%, the “Herbicidal action in % after 20 days against CCHEC” value (CCHEC; 125 g/ha a.s.) was 20% and the “Herbicidal action in % after 20 days against BRAPL” value (BRAPL; 62.5 g/ha a.s., Use Example 16) was 0%. For the same compound, the “Herbicidal action in % after 20 days against BRAPL” value (BRAPL; 125 g/ha a.s., Use Example 16) was 25%, the “Herbicidal action in % after 20 days against SETLU” value (SETLU; 62.5 g/ha a.s.) was 50% and the “Herbicidal action in % after 20 days against SETLU” value (SETLU; 125 g/ha a.s.) was 85%.
With `CCNc1nc(Cl)nc(NC(C)(C)C)n1` [Terbuthylazine, reference compound] the “Herbicidal action in % after 20 days against BRAPL” value (BRAPL; 250 g/ha a.s., Use Example 5) was 15% and the “Herbicidal action in % after 20 days against DIGSA” value (DIGSA; 250 g/ha a.s., Use Example 5) was 35%.
In the case of `CC(C)N(C(=O)SCC(Cl)=C(Cl)Cl)C(C)C` [Triallate, reference compound], the “Herbicidal action in % after 20 days against LOLMU” value (LOLMU [1]; 300 g/ha a.s., Use Example 1) is reported as 60%, the “Herbicidal action in % after 20 days against LOLMU” value (LOLMU [1]; 600 g/ha a.s., Use Example 1) is reported as 80% and the “Herbicidal action in % after 20 days against PHACA” value (PHACA; 300 g/ha a.s., Use Example 1) is reported as 40%. The “Herbicidal action in % after 20 days against PHACA” value (PHACA; 600 g/ha a.s., Use Example 1) was 50%.
